Measured values from patent US9056844B2, “4-substituted-3-benzyloxy-bicyclo[3.1.0]hexane compounds as mGluR 2/3 antagonists” (Eli Lilly and Company, priority 2010, dated 2015).

Tests used:
male NIH-Swiss mice = test: Forced-swim test in mice (mFST); format: in vivo, mouse; conditions: for ED60: Mus musculus, immobility in last 4 min of 6 min; for Maximal Decrease (1 − compound/control) * 100%: immobility time
From the text: Forced-Swim Test in Mice (mFST)
mFST is an established in vivo assay for antidepressant activity (Li et al. J Pharmacol Exp Ther. 319(1):254-9, 2006.). […] The mFST was used to evaluate potential antidepressant-like activity of novel mGlu2/3 antagonists essentially as described in previously published methods (see for example, Li et al. J Pharmacol Exp Ther. 319(1):254-9, 2006.). Briefly, male NIH-Swiss mice (Harlan Sprague-Dawley, Indianapolis, Ind.) weighing between 25-30 g are used. Group housed animals are removed from the vivarium to the testing area in their own cages and allowed to adapt to the new environment for at least 1 hour before testing. Compounds where R^1 and R^2 are both hydrogen are dissolved in water with minimal NaOH added for dissolution and are administered i.p. Compounds where R^1 and/or R^2 are other than hydrogen are prepared on the day of use in 2.0-2.5% N-methyl-pyrrolidinone and then suspended in 1% HEC, 0.25% Tween 80, and 0.05% Dow antifoam, and administered orally. Mice are placed in a cylinder (diameter: 10 cm; height: 25 cm) filled with 6 cm of water (22-25° C.) for 6 min. The duration of immobility during the last 4 min. of the 6 min. period of the test was scored. A mouse is recorded as immobile when floating motionless or making only those movements necessary to keep its head above water.

human mGlu6 receptor = molecular target: T1, human mGlu6 receptor (Homo sapiens, UniProt O15303); test: mGlu6 cAMP antagonist assay (reference agonist L-AP4); format: cell-based; conditions: cAMP format
T1 construct: expressed in transfected cells; host or cells: AV12 cells, co-expressing rat EAAT1
From the text: FLIPR and cAMP Assays for mGlu Receptor Selectivity
The relative antagonist potencies of the compounds of the invention for the other human mGlu receptors can be assessed with either a cAMP assay or fluorometric calcium response assay (see for example Fell et al., JPET (in press)). Briefly, individual AV12 cell lines containing the rat EAAT1 glutamate transporter and stably expressing the human mGlu1, 2, 3, 4, 5, 6, & 8 receptors are used for these studies. The mGlu1 and 5 receptors are […], so they naturally signal through phospholipase C, producing a calcium flux response which can be used to measure receptor activation using a Fluorometric Imaging Plate Reader (FLIPR, Molecular Devices). The cell lines expressing the mGlu2, 3, 4, and 8 receptor are designed to express the Gα15 subunit so that these Gi-coupled receptors will generate a calcium flux response similar to the mGlu1 and 5 receptor expressing cell lines. The mGlu6 receptor is tested in a cAMP format using methods analogous to those developed for mGlu2 and mGlu3 above. These cell lines are maintained as previously described except that amounts of L-glutamine and selection agents (geneticin, hygromycin B, zeocin, and blasticidin) may vary depending on the cell line. Confluent cultures are passaged biweekly.
Antagonist activity in mGlu6 cells is measured using cAMP in a method analogous to that described above for mGlu2 and mGlu3 activity, except that the reference agonist was L-AP4 (Tocris). […] Relative IC50 and EC50 values are calculated from the top-bottom range of the concentration response curve using a four-parameter logistic curve fitting program (ActivityBase v5.3.1.22).

human mGlu2 receptors = molecular target: T2, human mGlu2 receptors (Homo sapiens, UniProt Q14416); test: mGlu2 receptor cAMP antagonist assay; format: cell-based; conditions: reversal of DCG IV (EC90) inhibition of forskolin-stimulated cAMP; AV12 cells
T2 construct: expressed in transfected cells; host or cells: AV12 cells, co-expressing rat EAAT1
Method: (§1) mGlu2 and mGlu3 Receptor cAMP Antagonist Assays
Antagonist activity is assayed in recombinant AV12 cells stably expressing human mGlu2 or mGlu3 receptors and the rat glutamate transporter EAAT1 (Excitatory Amino Acid Transporter 1). The cell lines are maintained by culturing in DMEM with high glucose and pyridoxine hydrochloride supplemented with 5% dialyzed fetal bovine serum (FBS), 1 mM sodium pyruvate, 1 mM HEPES and 1 mM L-glutamine; geneticin and hygromycin B are used as selection antibiotics.
Reversal of the inhibition of forskolin-stimulated cAMP production by test compounds is measured using homogeneous time resolved fluorescence technology (HTRF; Cisbio cat #62AM4PEB). The medium is removed and the cells are incubated with 100 μl cAMP stimulation buffer (STIM) for 30 minutes at 37° C. […] Cells are incubated at 37° C. for 20 minutes. To measure the cAMP levels, cAMP-d2 conjugate and anti cAMP-cryptate conjugate in lysis buffer are incubated with the treated cells at room temperature for 1 hour (mGlu2) or 1.5 hour (mGlu3). […] The raw data are converted to cAMP amount (pmole/well) using a cAMP standard curve generated for each experiment. Relative IC50 values are calculated from the top-bottom range of the concentration response curve using a four-parameter logistic curve fitting program (ActivityBase v5.3.1.22).

human mGlu3 receptors = molecular target: T3, human mGlu3 receptors (Homo sapiens, UniProt Q14832); test: mGlu3 receptor cAMP antagonist assay; format: cell-based; conditions: reversal of DCG IV (EC90) inhibition of forskolin-stimulated cAMP; AV12 cells
T3 construct: expressed in transfected cells; host or cells: AV12 cells, co-expressing rat EAAT1
Method: as §1
Antagonist activity is assayed in recombinant AV12 cells stably expressing human mGlu2 or mGlu3 receptors and the rat glutamate transporter EAAT1 (Excitatory Amino Acid Transporter 1). The cell lines are maintained by culturing in DMEM with high glucose and pyridoxine hydrochloride supplemented with 5% dialyzed fetal bovine serum (FBS), 1 mM sodium pyruvate, 1 mM HEPES and 1 mM L-glutamine; geneticin and hygromycin B are used as selection antibiotics. Confluent cultures are grown at 37° C. in an atmosphere containing 6.5% CO2, and passaged biweekly. Cells are harvested using 0.25% trypsin, suspended in freeze media (FBS with 10% DMSO) at 10^7 cells/ml, and aliquots are stored in liquid nitrogen. Twenty-four hours before the assay, cells are plated at a density of 8,000-10,000 cells per well in a tissue culture treated, 96-well, half-area black plates (Costar 3875) in 50 μl of DMEM with high glucose and pyridoxine hydrochloride supplemented with 5% dialyzed FBS, 1 mM sodium pyruvate, 1 mM HEPES, 100 μg/ml ampicillin, and 250 μM (mGlu2) or 125 μM (mGlu3) of L-glutamine.
Reversal of the inhibition of forskolin-stimulated cAMP production by test compounds is measured using homogeneous time resolved fluorescence technology (HTRF; Cisbio cat #62AM4PEB). The medium is removed and the cells are incubated with 100 μl cAMP stimulation buffer (STIM) for 30 minutes at 37° C. (STIM buffer contains 500 ml HBSS, 1000 ml DPBS, 0.034% BSA, 1.67 mM HEPES and 500 μM IBMX (Sigma 15879).) Compounds are tested in 10-point concentration response curves using 3× serial dilution followed by further 40-fold dilution into STIM buffer. DCG IV (Tocris 0975) serves as the reference agonist. The final reaction mixture contains 1 μM (for mGlu2) or 3 μM (for mGlu3) of forskolin (Sigma F6886), DCG IV at its EC90, and up to 25 μM of test compound. Cells are incubated at 37° C. for 20 minutes. To measure the cAMP levels, cAMP-d2 conjugate and anti cAMP-cryptate conjugate in lysis buffer are incubated with the treated cells at room temperature for 1 hour (mGlu2) or 1.5 hour (mGlu3). The HTRF signal is detected using an EnVision plate reader (Perkin-Elmer) to calculate the ratio of fluorescence at […]. The raw data are converted to cAMP amount (pmole/well) using a cAMP standard curve generated for each experiment. Relative IC50 values are calculated from the top-bottom range of the concentration response curve using a four-parameter logistic curve fitting program (ActivityBase v5.3.1.22).

mice = test: mFST with SSRI (fluoxetine combination); format: in vivo, mouse; conditions: Example 10 17 mg/kg p.o., fluoxetine 10 mg/kg i.p., alone or combined
Method: mFST is an established in vivo assay for antidepressant activity (Li et al. J Pharmacol Exp Ther. 319(1):254-9, 2006.). […] J Pharmacol Exp Ther. 319(1):254-9, 2006.). Briefly, male NIH-Swiss mice (Harlan Sprague-Dawley, Indianapolis, Ind.) weighing between 25-30 g are used. Group housed animals are removed from the vivarium to the testing area in their own cages and allowed to adapt to the new environment for at least 1 hour before testing. Compounds where R^1 and R^2 are both hydrogen are dissolved in water with minimal NaOH added for dissolution and are administered i.p. […] Mice are placed in a cylinder (diameter: 10 cm; height: 25 cm) filled with 6 cm of water (22-25° C.) for 6 min. The duration of immobility during the last 4 min. of the 6 min. period of the test was scored. A mouse is recorded as immobile when floating motionless or making only those movements necessary to keep its head above water. The compounds of the invention may also be tested in combination with other compounds useful for the treatment of depressive disorders, as for example SSRI's, for their ability to enhance the antidepressant-like effects over that of either compound alone.

T3 sequence (Q14832 23-879): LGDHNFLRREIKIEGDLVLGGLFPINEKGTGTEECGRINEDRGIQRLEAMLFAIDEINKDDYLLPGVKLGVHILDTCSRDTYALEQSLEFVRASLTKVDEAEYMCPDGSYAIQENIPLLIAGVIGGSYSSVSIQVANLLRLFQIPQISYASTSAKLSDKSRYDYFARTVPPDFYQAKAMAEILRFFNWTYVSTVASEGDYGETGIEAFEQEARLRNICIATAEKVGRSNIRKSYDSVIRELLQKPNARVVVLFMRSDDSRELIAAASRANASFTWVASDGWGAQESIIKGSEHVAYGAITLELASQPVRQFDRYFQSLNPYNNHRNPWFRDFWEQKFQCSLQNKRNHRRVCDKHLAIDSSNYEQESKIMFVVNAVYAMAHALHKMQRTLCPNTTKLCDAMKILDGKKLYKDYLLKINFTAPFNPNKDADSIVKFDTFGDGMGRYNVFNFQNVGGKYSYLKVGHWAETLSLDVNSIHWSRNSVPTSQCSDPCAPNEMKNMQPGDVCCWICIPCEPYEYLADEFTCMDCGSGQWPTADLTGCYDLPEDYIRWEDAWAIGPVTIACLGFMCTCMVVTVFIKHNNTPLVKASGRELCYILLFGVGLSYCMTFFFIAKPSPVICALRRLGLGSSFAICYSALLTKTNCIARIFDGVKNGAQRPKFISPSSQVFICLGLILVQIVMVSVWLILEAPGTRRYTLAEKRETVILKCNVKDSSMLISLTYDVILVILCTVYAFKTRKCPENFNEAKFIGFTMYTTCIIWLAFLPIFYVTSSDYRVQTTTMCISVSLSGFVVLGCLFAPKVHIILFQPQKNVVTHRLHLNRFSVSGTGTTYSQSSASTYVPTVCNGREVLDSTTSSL
T1 sequence (O15303 25-877): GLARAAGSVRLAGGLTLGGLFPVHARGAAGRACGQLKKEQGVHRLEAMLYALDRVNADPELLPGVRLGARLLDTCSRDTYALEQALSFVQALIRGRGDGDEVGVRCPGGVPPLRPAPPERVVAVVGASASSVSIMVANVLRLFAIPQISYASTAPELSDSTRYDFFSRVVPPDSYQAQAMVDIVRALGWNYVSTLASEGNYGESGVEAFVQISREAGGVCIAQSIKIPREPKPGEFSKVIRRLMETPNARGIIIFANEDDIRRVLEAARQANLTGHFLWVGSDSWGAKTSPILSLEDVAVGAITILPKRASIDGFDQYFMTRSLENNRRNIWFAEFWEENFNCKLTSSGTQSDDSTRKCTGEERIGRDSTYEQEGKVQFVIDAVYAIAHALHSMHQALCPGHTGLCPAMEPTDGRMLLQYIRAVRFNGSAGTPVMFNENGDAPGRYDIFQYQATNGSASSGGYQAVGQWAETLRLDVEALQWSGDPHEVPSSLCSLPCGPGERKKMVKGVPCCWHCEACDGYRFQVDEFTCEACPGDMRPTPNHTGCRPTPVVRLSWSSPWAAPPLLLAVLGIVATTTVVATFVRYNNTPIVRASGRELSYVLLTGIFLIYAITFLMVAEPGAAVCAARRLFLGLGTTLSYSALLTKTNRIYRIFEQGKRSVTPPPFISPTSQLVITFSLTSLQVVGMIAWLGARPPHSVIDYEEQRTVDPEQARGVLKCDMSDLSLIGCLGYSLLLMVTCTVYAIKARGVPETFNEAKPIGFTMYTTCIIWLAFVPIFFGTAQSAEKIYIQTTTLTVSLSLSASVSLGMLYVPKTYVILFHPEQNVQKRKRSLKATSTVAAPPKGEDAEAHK
T2 sequence (Q14416 19-872): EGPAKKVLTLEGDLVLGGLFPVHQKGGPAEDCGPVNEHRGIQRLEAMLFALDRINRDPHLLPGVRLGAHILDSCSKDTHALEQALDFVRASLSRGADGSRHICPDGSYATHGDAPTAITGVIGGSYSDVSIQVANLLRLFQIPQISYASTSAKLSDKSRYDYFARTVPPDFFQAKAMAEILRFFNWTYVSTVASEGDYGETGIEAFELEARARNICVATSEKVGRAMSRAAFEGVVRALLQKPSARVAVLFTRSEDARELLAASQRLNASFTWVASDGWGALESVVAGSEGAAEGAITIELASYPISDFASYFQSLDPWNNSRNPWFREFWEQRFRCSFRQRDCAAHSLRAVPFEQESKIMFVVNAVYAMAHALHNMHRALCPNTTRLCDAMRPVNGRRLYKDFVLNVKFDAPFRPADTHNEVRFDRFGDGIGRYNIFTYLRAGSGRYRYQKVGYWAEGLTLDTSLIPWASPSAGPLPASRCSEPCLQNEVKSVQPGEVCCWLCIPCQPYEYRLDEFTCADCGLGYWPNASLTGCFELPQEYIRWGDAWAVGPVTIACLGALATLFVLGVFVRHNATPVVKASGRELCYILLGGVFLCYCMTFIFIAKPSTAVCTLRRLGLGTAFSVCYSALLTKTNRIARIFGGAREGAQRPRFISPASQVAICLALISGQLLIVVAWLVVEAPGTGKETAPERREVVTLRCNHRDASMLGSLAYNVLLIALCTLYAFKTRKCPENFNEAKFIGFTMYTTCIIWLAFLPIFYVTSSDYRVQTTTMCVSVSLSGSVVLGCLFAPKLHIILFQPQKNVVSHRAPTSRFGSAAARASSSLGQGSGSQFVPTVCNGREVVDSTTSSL

IC50 (human mGlu6 receptor) | IC50 (human mGlu2 receptors) | IC50 (human mGlu3 receptors) | SMILES | ED60 (male NIH-Swiss mice; po) | Maximal Decrease (1 − compound/control) * 100% (male NIH-Swiss mice; p.o.) | ED60 (male NIH-Swiss mice; ip) | Maximal Decrease (1 − compound/control) * 100% (male NIH-Swiss mice; i.p.) | Maximal Decrease (1 − compound/control) * 100% (mice) | Immobilization Time (mice; vehicle 174)
2580 nM |  | 26 ± 0.5 nM | Cl.N[C@]1(C(=O)O)[C@@H]2[C@@H](C(=O)O)[C@@H]2[C@H](Sc2ncc[nH]2)[C@H]1OCc1ccc(Cl)c(Cl)c1 [Example 8, (1R,2R,3S,4S,5R,6R)-2-Amino-3-[(3,4-dichlorobenzyl)oxy]-4-(1H-imidazol-2-ylsulfanyl)bicyclo[3.1.0]hexane-2,6-dicarboxylic acid hydrochloride] |  |  | 9.1 mg/kg | 41% |  | 
1580 ± 141 nM | 16.8 ± 1.6 nM | 9.5 ± 4.6 nM | COC(=O)N[C@H]1[C@H]2[C@H](C(=O)O)[C@H]2[C@](N)(C(=O)O)[C@@H]1OCc1ccc(Cl)c(Cl)c1 [Example 5, (1S,2R,3R,4S,5R,6S)-2-Amino-3-[(3,4-dichlorobenzyl)oxy]-4-[(methoxycarbonyl)amino]bicyclo[3.1.0]hexane-2,6-dicarboxylic acid] |  |  | 7.45 mg/kg | 56% |  | 
2480 ± 295 nM | 25.4 ± 4.8 nM | 10.8 nM | N[C@]1(C(=O)O)[C@@H]2[C@@H](C(=O)O)[C@@H]2[C@H](Sc2nccs2)[C@H]1OCc1ccc(Cl)c(Cl)c1 [Example 3, (1R,2R,3S,4S,5R,6R)-2-Amino-3-[(3,4-dichlorobenzyl)oxy]-4-(1,3-thiazol-2-ylsulfanyl)bicyclo[3.1.0]hexane-2,6-dicarboxylic acid] |  |  | 8.2 mg/kg | 47% |  | 

The remaining lines, values behind:

SMILES | IC50 (human mGlu6 receptor) | IC50 (human mGlu2 receptors) | IC50 (human mGlu3 receptors) | ED60 (male NIH-Swiss mice; po) | Maximal Decrease (1 − compound/control) * 100% (male NIH-Swiss mice; p.o.) | ED60 (male NIH-Swiss mice; ip) | Maximal Decrease (1 − compound/control) * 100% (male NIH-Swiss mice; i.p.) | Maximal Decrease (1 − compound/control) * 100% (mice) | Immobilization Time (mice; vehicle 174)
CC(C)C(=O)OCOC(=O)[C@H]1[C@@H]2[C@H](O)[C@@H](OCc3ccc(Cl)c(Cl)c3)[C@@](N)(C(=O)OCOC(=O)C(C)C)[C@H]12.Cl [Example 12, Bis{[(2-methylpropanoyl)oxy]methyl} (1S,2R,3S,4S,5R,6R)-2-amino-3-[(3,4-dichlorobenzyl)oxy]-4-hydroxybicyclo[3.1.0]hexane-2,6-dicarboxylate hydrochloride] |  |  |  | > 28 mg/kg | 7% |  |  |  | 
Cl.N[C@]1(C(=O)OCOC(=O)C2CC2)[C@@H]2[C@@H](C(=O)OCOC(=O)C3CC3)[C@@H]2[C@H](O)[C@H]1OCc1ccc(Cl)c(Cl)c1 [Example 13, Bis{[(cyclopropylcarbonyl)oxy]methyl} (1S,2R,3S,4S,5R,6R)-2-amino-3-[(3,4-dichlorobenzyl)oxy]-4-hydroxybicyclo[3.1.0]hexane-2,6-dicarboxylate hydrochloride] |  |  |  | 11.3 mg/kg | 62.8% |  |  |  | 
Cl.Cn1ncnc1S[C@H]1[C@H]2[C@H](C(=O)O)[C@H]2[C@](N)(C(=O)O)[C@@H]1OCc1ccc(Cl)c(Cl)c1 [Example 6, (1R,2R,3S,4S,5R,6R)-2-amino-3-[(3,4-dichlorobenzyl)oxy]-4-[(1-methyl-1H-1,2,4-triazol-5-yl)sulfanyl]bicyclo[3.1.0]hexane-2,6-dicarboxylic acid hydrochloride] | 1360 ± 433 nM | 18.6 ± 3.9 nM | 13.9 ± 2.4 nM |  |  | 7.3 mg/kg | 47% |  | 
CCOC(=O)OCOC(=O)[C@H]1[C@@H]2[C@H](O)[C@@H](OCc3ccc(Cl)c(Cl)c3)[C@@](N)(C(=O)OCOC(=O)OCC)[C@H]12.Cl [Example 11, Bis{[(ethoxycarbonyl)oxy]methyl} (1S,2R,3S,4S,5R,6R)-2-amino-3-[(3,4-dichlorobenzyl)oxy]-4-hydroxybicyclo[3.1.0]hexane-2,6-dicarboxylate hydrochloride] |  |  |  | 51.5 mg/kg | 32.9% |  |  |  | 
CNCCC(Oc1ccc(C(F)(F)F)cc1)c1ccccc1 (stereo not drawn) [Fluoxetine, fluoxetine, reference compound] |  |  |  |  |  |  |  | 7.6% | 161 s
